In the supplement of paper PMC4862054:

Columns and labels:
Conditions in all cases: incubation time: 72 h
DU-4475 [1] = experiment: normalised response (% of control), CellTox Green; higher = less cell death (100 = DMSO, 0 = benzethonium chloride kill control)
In short: (§1)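 Two readouts were taken after 72 h: CellTox Green fluorescence (485/520 nm) first, then CellTiter-Glo luminescence after 10 min at room temperature. Breast cancer cell lines had been seeded as 20 µl suspension into 384-well plates holding compound at 5 concentrations in 10-fold steps across a compound-specific 10,000-fold range. Each value is a normalised signal at a single concentration, with plates scaled to 0.1 % DMSO (100) and a positive kill control (0).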

CAL-51 [2] = experiment: as above
In short: as §1

MDA-MB-231 [3] = experiment: as above
In short: as §1

HCC1599 [4] = experiment: as above
In short: as §1

MDA-MB-453 [5] = experiment: as above
In short: as §1

MDA-MB-436 [6] = experiment: as above
In short: as §1

Hs578T [7] = experiment: as above
In short: as §1

HCC1143 [8] = experiment: as above
In short: as §1

MFM-223 [9] = experiment: as above
In short: as §1

HDQ-P1 [10] = experiment: as above
In short: as §1

BT-474 [11] = experiment: as above
In short: as §1

BT-549 [12] = experiment: as above
In short: as §1

CAL-148 [13] = experiment: as above
In short: as §1

MCF-10A [14] = experiment: as above
In short: as §1

CAL-85-1 [15] = experiment: as above
In short: as §1

MDA-MB-468 [16] = experiment: as above
In short: as §1

CAL-120 [17] = experiment: as above
In short: as §1

DU-4475 [18] = experiment: normalised response (% of control), CellTiter-Glo; higher = more viable cells (100 = DMSO, 0 = benzethonium chloride kill control)
Protocol: (§2)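 DSRT, 72 h incubation, CellTox Green / CellTiter-Glo readout. Signal is normalised to DMSO and benzethonium chloride controls. Value is the normalised response at dose 3.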

CAL-51 [19] = experiment: as above
Protocol: as §2

MDA-MB-231 [20] = experiment: as above
Protocol: as §2

HCC1599 [21] = experiment: as above
Protocol: as §2

MDA-MB-453 [22] = experiment: as above
Protocol: as §2

MDA-MB-436 [23] = experiment: as above
Protocol: as §2

Hs578T [24] = experiment: as above
Protocol: as §2

HCC1143 [25] = experiment: as above
Protocol: as §2

SK-BR-3 = experiment: as above
Protocol: as §2

MFM-223 [26] = experiment: as above
Protocol: as §2

HDQ-P1 [27] = experiment: as above
Protocol: as §2

BT-474 [28] = experiment: as above
Protocol: as §2

BT-549 [29] = experiment: as above
Protocol: as §2

CAL-148 [30] = experiment: as above
Protocol: as §2

MCF-10A [31] = experiment: as above
Protocol: as §2

CAL-85-1 [32] = experiment: as above
Protocol: as §2

HCC1937 [33] = experiment: as above
Protocol: as §2

MDA-MB-468 [34] = experiment: as above
Protocol: as §2

CAL-120 [35] = experiment: as above
Protocol: as §2

HCC1937 [36] = experiment: normalised response (% of control), CellTox Green; higher = less cell death (100 = DMSO, 0 = benzethonium chloride kill control)
In short: as §1

SMILES	normalised response (DU-4475 [1])	normalised response (CAL-51 [2])	normalised response (MDA-MB-231 [3])	normalised response (HCC1599 [4])	normalised response (MDA-MB-453 [5])	normalised response (MDA-MB-436 [6])	normalised response (Hs578T [7])	normalised response (HCC1143 [8])	normalised response (MFM-223 [9])	normalised response (HDQ-P1 [10])	normalised response (BT-474 [11])	normalised response (BT-549 [12])	normalised response (CAL-148 [13])	normalised response (MCF-10A [14])	normalised response (CAL-85-1 [15])	normalised response (MDA-MB-468 [16])	normalised response (CAL-120 [17])	normalised response (DU-4475 [18])	normalised response (CAL-51 [19])	normalised response (MDA-MB-231 [20])	normalised response (HCC1599 [21])	normalised response (MDA-MB-453 [22])	normalised response (MDA-MB-436 [23])	normalised response (Hs578T [24])	normalised response (HCC1143 [25])	normalised response (SK-BR-3)	normalised response (MFM-223 [26])	normalised response (HDQ-P1 [27])	normalised response (BT-474 [28])	normalised response (BT-549 [29])	normalised response (CAL-148 [30])	normalised response (MCF-10A [31])	normalised response (CAL-85-1 [32])	normalised response (HCC1937 [33])	normalised response (MDA-MB-468 [34])	normalised response (CAL-120 [35])	normalised response (HCC1937 [36])
Cc1c(N)nc([C@H](CC(N)=O)NC[C@H](N)C(N)=O)nc1C(=O)N[C@H](C(=O)N[C@H](C)[C@@H](O)[C@H](C)C(=O)N[C@H](C(=O)NCCc1nc(-c2nc(C(=O)NCCC[S+](C)C)cs2)cs1)[C@@H](C)O)[C@@H](OC1OC(CO)C(O)C(O)C1OC1OC(CO)C(O)C(OC(N)=O)C1O)c1cnc[nH]1 (some centres not stated) [Bleomycin] (100 nM)	98.6%	36.9%	104%	91.9%	103%	58.6%	81.2%	91.3%	101%	110%	98.1%	87.6%	93.5%	93.2%	99.8%	151%	95.1%	93.8%	55%	89.3%	94.6%	90.2%	89.1%	93.2%	90.6%	92.8%	95.6%	99.5%	95.8%	77.2%	87.7%	90.6%	96.8%	84.2%	80.4%	95.3%	
Cc1cc2c(F)c(Oc3ncnn4cc(OC[C@@H](C)O)c(C)c34)ccc2[nH]1 [Brivanib] (10 nM)	104%	108%	111%	104%	109%	96%	88.4%	111%		72.3%	99.8%	60.1%	103%	89.7%	106%	91.2%	98%	99.6%	106%	111%	104%	102%	112%	102%	105%	115%	108%	99.5%	105%	100%	108%	113%	102%	101%	105%	100%	82%
Nc1nc(Cl)nc2c1ncn2[C@@H]1O[C@H](CO)[C@@H](O)[C@@H]1F [Clofarabine] (100 nM)	114%	86%	106%	103%	106%	102%	90.3%	105%	99.3%	100%	104%	102%	92.7%	99.3%	113%		107%	99.4%	76%	83.9%	76.2%	105%	90.3%	98.6%	96.4%	82.6%	104%	98.5%	82.3%	79.5%	96.2%	109%	93.2%	84.1%	94.3%	93.8%	62.3%
C[C@@H]1C[C@H]2[C@@H]3CCC4=CC(=O)C=C[C@]4(C)[C@@]3(F)[C@@H](O)C[C@]2(C)[C@@]1(O)C(=O)CO [Dexamethasone] (100 nM)	96.4%	99.4%		96%	95.5%	67.3%	114%	101%	95.7%		96.4%	101%	97.2%	97%	107%	97.2%	96.7%	102%	101%	154%	95.2%	83.8%	101%	92.5%	101%	88.4%	95.7%	84.8%	145%	103%	91.2%	84.3%	113%	99%	103%	72.8%	68%
O=NN(CCCl)C(=O)NC1CCCCC1 [Lomustine] (100 nM)	103%	109%	110%	101%	106%	108%	102%	104%	105%	96.1%	101%	77.1%		103%	113%	103%	102%	107%	104%	99.4%	90.1%	101%	101%	99.6%	104%	102%	110%	104%	104%	103%	91.5%	98.4%	95.6%	89.4%	96.1%	97.7%	96.5%
NC1(c2ccc(-c3nc4ccn5c(=O)[nH]nc5c4cc3-c3ccccc3)cc2)CCC1 [MK-2206] (10 nM)	103%	83.6%	115%	118%	110%	95.6%	96.1%	110%	104%	114%	99%	86.6%		111%	95.4%	139%	103%	102%	74.5%	108%	84.7%	88.5%	102%	102%	104%	93.8%	104%	95.5%	102%	107%	107%	110%	99.8%	96.5%	102%	102%	81.7%
CN1CCN(c2nc(C3=C(c4c[nH]c5ccccc45)C(=O)NC3=O)c3ccccc3n2)CC1 [Sotrastaurin] (100 nM)	99.6%	98%	67%	97.2%	97.8%	96.6%	93.3%	76.4%		101%	102%	99.3%	98.4%	91.4%	113%	162%	83.6%	94.3%	112%	102%	99.1%	95.6%	98.9%	97.5%	98.8%	100%	92.1%	96.1%	98.2%	98.7%	97.2%	87.5%	102%	97.8%	99.3%	98.1%	64.6%
COc1cc2c(N3CCN(C(=O)Nc4ccc(OC(C)C)cc4)CC3)ncnc2cc1OCCCN1CCCCC1 [Tandutinib] (10 nM)	98%	95%	99.9%	96.8%	90.3%	101%	69.4%	86.5%	78.6%	90.3%	84.8%	98.8%		104%	99%	63.1%	87.9%	97.1%	69.2%	103%	106%	96.3%	106%	101%	98.1%	100%	100%	99.7%	98.9%	104%	102%	97.8%	109%	97.4%	103%	100%	81.3%
